Columns and labels:
Experiment in all cases: relative viability (nuclei count vs DMSO), 5 days (fraction); higher = more cells survive
[1] = compound: CC1=CC(=CC=C1)NC2=NC(=CS2)C3=CC=NC=C3 + CS(=O)(=O)CCNCc1ccc(-c2ccc3ncnc(Nc4ccc(OCc5cccc(F)c5)c(Cl)c4)c3c2)o1 [Lapatinib] (partner 2 µM)
Method in brief: (§1)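 One day after seeding in 1536-well plates, lung cancer cell lines were dosed by pin tool. Dosing was either single-drug or a fixed anchor-drug dose plus five library-drug doses (not always all listed) in √10 steps. After 5 days, nuclei were stained in one fix-and-stain step and counted on 4× images, and relative viability is the nuclei count of treated wells over that of vehicle wells, given as the median of duplicate plates.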

[2] = compound: CC1=CC(=CC=C1)NC2=NC(=CS2)C3=CC=NC=C3 + Cc1nc(Nc2ncc(C(=O)Nc3c(C)cccc3Cl)s2)cc(N2CCN(CCO)CC2)n1 [Dasatinib] (partner 0.075 µM)
Method in brief: as §1

Masitinib + Crizotinib = compound: Cc1ccc(NC(=O)c2ccc(CN3CCN(C)CC3)cc2)cc1Nc1nc(-c2cccnc2)cs1 [Masitinib] + C[C@@H](Oc1cc(-c2cnn(C3CCNCC3)c2)cnc1N)c1c(Cl)ccc(F)c1Cl [Crizotinib] (partner 1 µM)
Method in brief: as §1

Masitinib + Olaparib = compound: Cc1ccc(NC(=O)c2ccc(CN3CCN(C)CC3)cc2)cc1Nc1nc(-c2cccnc2)cs1 [Masitinib] + O=C(c1cc(Cc2n[nH]c(=O)c3ccccc23)ccc1F)N1CCN(C(=O)C2CC2)CC1 [Olaparib] (partner 8 µM)
Method in brief: as §1

Cell Line | relative viability ([1]; first compound 0.08 µM) | relative viability ([1]; first compound 0.253 µM) | relative viability ([1]; first compound 0.8 µM) | relative viability ([1]; first compound 2.53 µM) | relative viability ([1]; first compound 8 µM) | relative viability ([2]; first compound 0.08 µM) | relative viability ([2]; first compound 0.253 µM) | relative viability ([2]; first compound 0.8 µM) | relative viability ([2]; first compound 2.53 µM) | relative viability ([2]; first compound 8 µM) | relative viability (Masitinib + Crizotinib; first compound 0.01 µM) | relative viability (Masitinib + Crizotinib; first compound 0.03162 µM) | relative viability (Masitinib + Crizotinib; first compound 0.1 µM) | relative viability (Masitinib + Crizotinib; first compound 0.3162 µM) | relative viability (Masitinib + Crizotinib; first compound 1 µM) | relative viability (Masitinib + Olaparib; first compound 0.01 µM) | relative viability (Masitinib + Olaparib; first compound 0.03162 µM) | relative viability (Masitinib + Olaparib; first compound 0.1 µM) | relative viability (Masitinib + Olaparib; first compound 0.3162 µM) | relative viability (Masitinib + Olaparib; first compound 1 µM)
HOP-62 | 0.94 | 1.02 | 1.2 | 1 | 0.909 | 0.52 | 0.605 | 0.527 | 0.594 | 0.449 | 0.659 | 0.88 | 1.09 | 1.08 | 0.898 | 0.312 | 0.819 | 0.451 | 0.289 | 0.418
LC-2-ad | 0.953 | 0.86 | 0.948 | 0.853 | 0.788 | 0.522 | – | 0.59 | 0.431 | 0.478 | 0.347 | 0.399 | 0.466 | 0.473 | 0.373 | 0.708 | 0.715 | 0.719 | 0.702 | 0.73
LCLC-97TM1 | – | – | 1.04 | 1.03 | 1.27 | 0.898 | 0.824 | 0.963 | 0.856 | 1.01 | 0.27 | 0.31 | 0.394 | 0.288 | 0.238 | 0.402 | 0.396 | 0.406 | 0.473 | 0.427
LK-2 | 0.784 | 0.903 | 1.09 | – | 1.33 | – | 0.241 | 0.421 | – | 0.327 | 0.248 | 0.246 | 0.21 | 0.217 | 0.188 | 0.8 | 0.679 | 1.01 | 0.615 | 0.7
LOU-NH91 | 0.576 | 0.613 | 0.686 | 0.705 | 0.551 | 0.464 | 0.51 | 0.432 | 0.472 | 0.458 | 0.706 | 0.683 | 0.768 | 0.73 | 0.712 | 0.883 | 0.917 | 0.902 | 0.869 | 0.908
LU99A | – | 1.02 | 1.01 | 0.903 | 0.868 | 0.543 | 0.525 | 0.521 | 0.517 | 0.479 | 0.592 | 0.629 | 0.62 | 0.639 | 0.527 | 0.27 | 0.276 | 0.246 | 0.255 | 0.269
LXF-289 | 0.815 | 0.93 | 0.938 | 0.823 | 0.807 | 0.194 | 0.214 | 0.224 | 0.183 | 0.159 | 0.701 | 0.783 | 0.818 | 0.835 | 0.802 | 0.948 | 0.99 | 1.06 | 1.04 | 1.02
NCI-H23 | 0.971 | 1.07 | 1.01 | 1 | 0.894 | 0.74 | 0.542 | 0.741 | 0.714 | 0.792 | 0.524 | 0.423 | 0.597 | 0.463 | 0.465 | 0.294 | 0.256 | 0.295 | 0.242 | 0.264
NCI-H322M | 0.538 | 0.518 | 0.519 | 0.572 | 0.662 | 0.244 | 0.222 | 0.257 | 0.264 | 0.259 | 0.745 | 0.956 | 1.02 | 0.9 | 0.873 | 0.733 | 0.726 | 0.857 | 0.729 | 0.128
NCI-H358 | 0.433 | 0.476 | 0.554 | 0.607 | 0.604 | 0.214 | 0.173 | 0.182 | 0.185 | 0.263 | 0.406 | 0.534 | 0.588 | 0.473 | 0.533 | 0.549 | 0.621 | 0.603 | 0.604 | 0.607
NCI-H460 | 0.875 | 0.901 | 0.887 | 1.11 | 0.692 | 0.44 | 0.306 | 0.554 | 0.381 | 0.343 | 0.748 | 0.763 | 1.03 | 0.647 | 0.911 | 0.38 | 0.381 | 0.436 | 0.463 | 0.415
NCI-H520 | 0.883 | 0.827 | 0.932 | 0.777 | 0.954 | 0.225 | 0.239 | 0.25 | 0.209 | 0.243 | 0.766 | – | 0.921 | 0.908 | 0.577 | 0.305 | 0.409 | 0.362 | 0.332 | 0.277
NCI-H596 | 0.854 | 0.974 | 0.819 | 0.94 | 1.01 | 0.501 | 0.507 | 0.584 | 0.524 | 0.435 | 0.964 | 1.1 | 1.06 | 0.931 | 0.981 | 0.593 | 0.657 | 0.634 | 0.581 | 0.633
NCI-H647 | 0.958 | 0.977 | 0.849 | 0.932 | 0.917 | 0.17 | 0.172 | 0.195 | 0.148 | 0.196 | 1.06 | 0.987 | 1.1 | 1.21 | 1.21 | 0.572 | 0.408 | 0.789 | 0.596 | 0.642
NCI-H650 | 0.708 | 0.815 | 1.32 | – | 0.975 | 0.366 | 0.413 | 0.447 | 0.376 | 0.475 | 0.741 | 0.66 | 0.932 | 0.643 | 0.805 | 0.41 | 0.386 | 0.422 | 0.394 | 0.324
NCI-H661 | 0.481 | 0.506 | 0.573 | 0.468 | 0.507 | 0.686 | 0.862 | 0.892 | 0.774 | 0.808 | 0.737 | 1.2 | 0.964 | 0.93 | 0.844 | 0.722 | 0.779 | 0.802 | 0.731 | 0.711

— the supplement of paper PMC10307832
